Measured values taken from ChEMBL document CHEMBL1147144, “Novel styrylpyridines as probes for SPECT imaging of amyloid plaques” (J Med Chem, 2007).

How the values were obtained:
[1] = test system: Blood; assay: Biodistribution in ICR mouse blood at 5 to 10 uCi, iv after 2 hrs; format: ADME, organism-based; settings: in vivo
[2] = test system: Spleen; assay: Biodistribution in ICR mouse spleen at 5 to 10 uCi, iv after 2 hrs; format: ADME, organism-based; settings: in vivo
[3] = test system: Muscle tissue; assay: Biodistribution in ICR mouse muscle at 5 to 10 uCi, iv after 2 hrs; format: ADME, organism-based; settings: in vivo
[4] = test system: Kidney; assay: Biodistribution in ICR mouse kidney at 5 to 10 uCi, iv after 2 mins; format: ADME, organism-based; settings: in vivo
[5] = test system: Liver; assay: Biodistribution in ICR mouse liver at 5 to 10 uCi, iv after 2 mins; format: ADME, organism-based; settings: in vivo
[6] = test system: Spleen; assay: Biodistribution in ICR mouse spleen at 5 to 10 uCi, iv after 30 mins; format: ADME, organism-based; settings: in vivo, 0.5 h
[7] = test system: Liver; assay: Biodistribution in ICR mouse liver at 5 to 10 uCi, iv after 1 hr; format: ADME, organism-based; settings: in vivo
[8] = test system: Kidney; assay: Biodistribution in ICR mouse kidney at 5 to 10 uCi, iv after 1 hr; format: ADME, organism-based; settings: in vivo
[9] = test system: Thyroid gland; assay: Biodistribution in ICR mouse thyroid at 5 to 10 uCi, iv after 2 hrs; format: ADME, organism-based; settings: in vivo
[10] = test system: Brain; assay: Ratio of drug distribution in brain after 2 mins to 30 mins in ICR mouse at 5 to 10 uCi, iv; format: ADME, organism-based; settings: in vivo
[11] = test system: Zone of skin; assay: Biodistribution in ICR mouse skin at 5 to 10 uCi, iv after 30 mins; format: ADME, organism-based; settings: in vivo, 0.5 h
[12] = test system: Muscle tissue; assay: Biodistribution in ICR mouse muscle at 5 to 10 uCi, iv after 1 hr; format: ADME, organism-based; settings: in vivo
[13] = test system: Liver; assay: Biodistribution in ICR mouse liver at 5 to 10 uCi, iv after 2 hrs; format: ADME, organism-based; settings: in vivo
[14] = test system: Brain; assay: Biodistribution in ICR mouse brain at 5 to 10 uCi, iv after 1 hr; format: ADME, organism-based; settings: in vivo
[15] = test system: Spleen; assay: Biodistribution in ICR mouse spleen at 5 to 10 uCi, iv after 2 mins; format: ADME, organism-based; settings: in vivo
[16] = test system: Heart; assay: Biodistribution in ICR mouse heart at 5 to 10 uCi, iv after 2 mins; format: ADME, organism-based; settings: in vivo
[17] = test system: Heart; assay: Biodistribution in ICR mouse heart at 5 to 10 uCi, iv after 1 hr; format: ADME, organism-based; settings: in vivo
[18] = test system: Kidney; assay: Biodistribution in ICR mouse kidney at 5 to 10 uCi, iv after 2 hrs; format: ADME, organism-based; settings: in vivo
[19] = test system: Blood; assay: Biodistribution in ICR mouse blood at 5 to 10 uCi, iv after 1 hr; format: ADME, organism-based; settings: in vivo
[20] = Partition coefficient, log P at pH 7.4; format: physicochemical; settings: octanol/water
[21] = test system: Heart; assay: Biodistribution in ICR mouse heart at 5 to 10 uCi, iv after 30 mins; format: ADME, organism-based; settings: in vivo, 0.5 h
[22] = test system: Lung; assay: Biodistribution in ICR mouse lung at 5 to 10 uCi, iv after 2 mins; format: ADME, organism-based; settings: in vivo
[23] = test system: Thyroid gland; assay: Biodistribution in ICR mouse thyroid at 5 to 10 uCi, iv after 2 mins; format: ADME, organism-based; settings: in vivo
[24] = test system: Brain; assay: Biodistribution in ICR mouse brain at 5 to 10 uCi, iv after 2 mins; format: ADME, organism-based; settings: in vivo
[25] = test system: Thyroid gland; assay: Biodistribution in ICR mouse thyroid at 5 to 10 uCi, iv after 30 mins; format: ADME, organism-based; settings: in vivo, 0.5 h
[26] = test system: Zone of skin; assay: Biodistribution in ICR mouse skin at 5 to 10 uCi, iv after 2 mins; format: ADME, organism-based; settings: in vivo
[27] = test system: Muscle tissue; assay: Biodistribution in ICR mouse muscle at 5 to 10 uCi, iv after 2 mins; format: ADME, organism-based; settings: in vivo
[28] = test system: Spleen; assay: Biodistribution in ICR mouse spleen at 5 to 10 uCi, iv after 1 hr; format: ADME, organism-based; settings: in vivo
[29] = test system: Liver; assay: Biodistribution in ICR mouse liver at 5 to 10 uCi, iv after 30 mins; format: ADME, organism-based; settings: in vivo, 0.5 h
[30] = test system: Thyroid gland; assay: Biodistribution in ICR mouse thyroid at 5 to 10 uCi, iv after 1 hr; format: ADME, organism-based; settings: in vivo
[31] = test system: Heart; assay: Biodistribution in ICR mouse heart at 5 to 10 uCi, iv after 2 hrs; format: ADME, organism-based; settings: in vivo
[32] = test system: Muscle tissue; assay: Biodistribution in ICR mouse muscle at 5 to 10 uCi, iv after 30 mins; format: ADME, organism-based; settings: in vivo, 0.5 h
[33] = test system: Blood; assay: Biodistribution in ICR mouse blood at 5 to 10 uCi, iv after 2 mins; format: ADME, organism-based; settings: in vivo
[34] = test system: Kidney; assay: Biodistribution in ICR mouse kidney at 5 to 10 uCi, iv after 30 mins; format: ADME, organism-based; settings: in vivo, 0.5 h
[35] = test system: Zone of skin; assay: Biodistribution in ICR mouse skin at 5 to 10 uCi, iv after 2 hrs; format: ADME, organism-based; settings: in vivo
[36] = test system: Lung; assay: Biodistribution in ICR mouse lung at 5 to 10 uCi, iv after 30 mins; format: ADME, organism-based; settings: in vivo, 0.5 h
[37] = test system: Lung; assay: Biodistribution in ICR mouse lung at 5 to 10 uCi, iv after 2 hrs; format: ADME, organism-based; settings: in vivo
[38] = test system: Brain; assay: Biodistribution in ICR mouse brain at 5 to 10 uCi, iv after 2 hrs; format: ADME, organism-based; settings: in vivo
[39] = test system: Lung; assay: Biodistribution in ICR mouse lung at 5 to 10 uCi, iv after 1 hr; format: ADME, organism-based; settings: in vivo
[40] = test system: Zone of skin; assay: Biodistribution in ICR mouse skin at 5 to 10 uCi, iv after 1 hr; format: ADME, organism-based; settings: in vivo
[41] = test system: Blood; assay: Biodistribution in ICR mouse blood at 5 to 10 uCi, iv after 30 mins; format: ADME, organism-based; settings: in vivo, 0.5 h
[42] = test system: Brain; assay: Biodistribution in ICR mouse brain at 5 to 10 uCi, iv after 30 mins; format: ADME, organism-based; settings: in vivo, 0.5 h
[43] = target: Amyloid-beta precursor protein (Homo sapiens, UniProt P05067); assay: Displacement of […] from Abeta peptide plaques in Alzheimer's disease patient brain
Chain of Amyloid-beta precursor protein (P05067 whole entry): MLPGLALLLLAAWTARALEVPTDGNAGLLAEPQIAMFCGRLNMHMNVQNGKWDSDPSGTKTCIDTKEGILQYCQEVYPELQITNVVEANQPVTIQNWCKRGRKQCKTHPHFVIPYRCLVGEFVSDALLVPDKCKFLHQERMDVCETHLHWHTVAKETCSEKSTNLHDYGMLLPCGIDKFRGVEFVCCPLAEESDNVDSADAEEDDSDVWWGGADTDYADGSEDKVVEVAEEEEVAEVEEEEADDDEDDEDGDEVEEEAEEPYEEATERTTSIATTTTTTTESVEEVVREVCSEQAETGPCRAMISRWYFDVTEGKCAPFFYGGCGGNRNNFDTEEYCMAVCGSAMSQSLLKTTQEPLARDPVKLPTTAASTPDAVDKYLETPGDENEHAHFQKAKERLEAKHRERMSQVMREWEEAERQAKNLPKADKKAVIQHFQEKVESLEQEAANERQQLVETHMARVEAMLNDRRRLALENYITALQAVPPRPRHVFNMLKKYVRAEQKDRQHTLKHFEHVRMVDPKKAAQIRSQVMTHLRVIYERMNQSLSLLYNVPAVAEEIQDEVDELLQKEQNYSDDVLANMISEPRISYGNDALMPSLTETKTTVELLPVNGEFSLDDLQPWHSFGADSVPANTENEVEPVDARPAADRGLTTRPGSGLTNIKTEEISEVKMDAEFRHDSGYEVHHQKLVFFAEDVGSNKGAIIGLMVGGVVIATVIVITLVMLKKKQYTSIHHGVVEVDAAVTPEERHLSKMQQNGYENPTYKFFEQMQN

CN(C)c1ccc(/C=C/c2cnc(OCCO)c([125I])c2)cc1
Drug uptake [1]: 1.01 % ID/g
Drug uptake [2]: 0.8 % ID/g
Drug uptake [3]: 0.22 % ID/g
Drug uptake [4]: 14.3 % ID/g
Drug uptake [5]: 19.1 % ID/g
Drug uptake [6]: 1.94 % ID/g
Drug uptake [7]: 6.22 % ID/g
Drug uptake [8]: 2.49 % ID/g
Drug uptake [9]: 24.8 % ID/g
Ratio [10]: 1.52
Drug uptake [11]: 1.18 % ID/g
Drug uptake [12]: 0.55 % ID/g
Drug uptake [13]: 4.87 % ID/g
Drug uptake [14]: 1.32 % ID/g
Drug uptake [15]: 4.4 % ID/g
Drug uptake [16]: 10.2 % ID/g
Drug uptake [17]: 1.12 % ID/g
Drug uptake [18]: 1.48 % ID/g
Drug uptake [19]: 2.18 % ID/g
logD [20]: 2.2
Drug uptake [21]: 1.93 % ID/g
Drug uptake [22]: 9.41 % ID/g
Drug uptake [23]: 4.15 % ID/g
Drug uptake [24]: 5.43 % ID/g
Drug uptake [25]: 11.2 % ID/g
Drug uptake [26]: 0.46 % ID/g
Drug uptake [27]: 0.71 % ID/g
Drug uptake [28]: 1.32 % ID/g
Drug uptake [29]: 12.4 % ID/g
Drug uptake [30]: 59.1 % ID/g
Drug uptake [31]: 0.62 % ID/g
Drug uptake [32]: 1.05 % ID/g
Drug uptake [33]: 2.71 % ID/g
Drug uptake [34]: 4.19 % ID/g
Drug uptake [35]: 0.4 % ID/g
Drug uptake [36]: 3.02 % ID/g
Drug uptake [37]: 1 % ID/g
Drug uptake [38]: 0.46 % ID/g
Drug uptake [39]: 1.98 % ID/g
Drug uptake [40]: 1.16 % ID/g
Drug uptake [41]: 2.24 % ID/g
Drug uptake [42]: 3.56 % ID/g

CN(C)c1ccc(/C=C/c2cnc(OCCOCCOCCF)c(I)c2)cc1
Ki [43]: 7.5 nM

CNc1ccc(/C=C/c2cnc(OCCO)c(I)c2)cc1
Ki [43]: 8.5 nM

OCCOc1ncc(/C=C/c2ccc(O)cc2)cc1[125I]
Drug uptake [1]: 1.56 % ID/g
Drug uptake [2]: 0.5 % ID/g
Drug uptake [3]: 0.12 % ID/g
Drug uptake [4]: 20.4 % ID/g
Drug uptake [5]: 18.3 % ID/g
Drug uptake [6]: 1.28 % ID/g
Drug uptake [7]: 2.38 % ID/g
Drug uptake [8]: 2.94 % ID/g
Drug uptake [9]: 16 % ID/g
Drug uptake [11]: 1.36 % ID/g
Drug uptake [12]: 0.21 % ID/g
Drug uptake [13]: 2.63 % ID/g
Drug uptake [14]: 0.09 % ID/g
Drug uptake [15]: 4.2 % ID/g
Drug uptake [16]: 6.66 % ID/g
Drug uptake [17]: 0.65 % ID/g
Drug uptake [18]: 2.5 % ID/g
Drug uptake [19]: 1.29 % ID/g
logD [20]: 2.2
Drug uptake [21]: 1.35 % ID/g
Drug uptake [22]: 14.2 % ID/g
Drug uptake [23]: 4.38 % ID/g
Drug uptake [24]: 0.99 % ID/g
Drug uptake [25]: 3.99 % ID/g
Drug uptake [26]: 0.64 % ID/g
Drug uptake [27]: 1.01 % ID/g
Drug uptake [28]: 0.5 % ID/g
Drug uptake [29]: 5.15 % ID/g
Drug uptake [30]: 13 % ID/g
Drug uptake [31]: 0.51 % ID/g
Drug uptake [32]: 0.59 % ID/g
Drug uptake [33]: 10.1 % ID/g
Drug uptake [34]: 10 % ID/g
Drug uptake [35]: 0.37 % ID/g
Drug uptake [36]: 3.1 % ID/g
Drug uptake [37]: 1.02 % ID/g
Drug uptake [38]: 0.06 % ID/g
Drug uptake [39]: 1.34 % ID/g
Drug uptake [40]: 0.62 % ID/g
Drug uptake [41]: 3.92 % ID/g
Drug uptake [42]: 0.26 % ID/g

CN(C)c1ccc(/C=C/c2cnc(OCCO)c(Br)c2)cc1
Ki [43]: 3.6 nM

Oc1ccc(/C=C/c2cnc(OCCOCCOCCF)c(I)c2)cc1
Ki [43]: 21 nM

CNc1ccc(/C=C/c2cnc(OCCOCCOCCF)c(I)c2)cc1
Ki [43]: 9 nM

CN(C)c1ccc(/C=C/c2cnc(OCCOCCOCCF)c(Br)c2)cc1
Ki [43]: 6.8 nM
